Assays:
Factor Xa = biological target: T1, Factor Xa (Homo sapiens, UniProt P00742); assay: Anti-Factor Xa activity assay (chromogenic substrate CS-11(22)); format: biochemical; conditions: ratio of compound IC50 to apixaban IC50; Factor Xa 0.1 U/ml, absorbance at 405 nm, 37° C.
T1 construct: purchased MERK
Experimental: I. Anti-Factor Xa Activity Assay
Substrate: CS-1122 (Hyphen)
Buffer: 50 mM TrisHCl, 150 mM NaCl, PH8.3
100 μL of buffer, 50 μL of different concentrations of compounds (diluted with buffer) and 50 μl of 0.1 U/ml Factor Xa enzyme (diluted with buffer) were added to a 96-well plate. After 15 min of exposure, 50 μL of chromogenic substrate 2.5 mg/ml CS-11 (22) was added. The substrate hydrolysis was monitored by measuring absorbance at 405 nm at 37° C. for up to 30 min (interval: 30 seconds) using a microplate spectrophotometer. IC50 was calculated by bliss.

Male SD rats [1] = assay: Rat tail bleeding model; format: in vivo; conditions: rat tail transected 0.5 to 4 hours after administration; prolongation = ratio of treated vs. mean vehicle value; relative to apixaban
Experimental: II Rat Tail Bleeding Model
Male SD rats were allocated randomly and administrated. After the administration, the rats were anesthetized by intraperitoneal injection of 10% chloral hydrate. At the time point of 0.5 to 4 hours (Tmax in PK) after the administration, the tails of anesthetized rats were transected 3 mm from the tip and vertically immersed in saline at 37° C. The time point when the continuous blood flow ceased for >30 s was measured. The prolongation of bleeding time was expressed as a ratio of treated vs. the mean vehicle value. Effects of compounds were determined as described below.

Male SD rats [2] = assay: Arteriovenous shunt model in rats; format: in vivo, rat; set-up: concentration or dose not given beside the values; conditions: rats given orally 2-4 hours before shunt opened; shunt 15 minutes; thrombus weight, treated vs. mean vehicle
From the text: III. Arteriovenous Shunt Model in Rats
Two 10 cm-long polyethylene tubings (1.50 and 2.88 mm of inner and outer diameter, respectively) linked to a central part (8 cm-long, 2.11 and 3.77 mm of inner and outer diameter, respectively) containing a 6 cm silk thread and filled with heparin (3.125 U/ml) were placed between the right carotid artery and the left jugular vein in rats.
Male SD rats were anesthetized by intraperitoneal injection of 10% chloral hydrate after oral dose, inverted fixation, then the right catotid artery and left vena jugularis externa were isolated, the proximal and distal sutures of catotid artery were tied. The syringe needle were cannulated into the catotid artery and fasted, the other of the tube was cannulated into the right vena jugularis externa. Rats were given orally 2-4 hours before the shunt was opened. Blood flowed from the right carotid artery into the polyethylene tubing and then return to left vena jugularis externa. The shunt was then disconnected 15 minutes later and the silk thread covered with thrombus was immediately withdrawn and weighed. The wet weight of the thrombus was determined. Then the silk thread was dried at 60° C. for 4 h to get the dry weight of the thrombus. The anti-thrombotic effects of these agents were expressed as percentage inhibition of thrombus formation based on the treated vs. the corresponding mean vehicle.

T1 sequence (P00742 235-488 limits assumed): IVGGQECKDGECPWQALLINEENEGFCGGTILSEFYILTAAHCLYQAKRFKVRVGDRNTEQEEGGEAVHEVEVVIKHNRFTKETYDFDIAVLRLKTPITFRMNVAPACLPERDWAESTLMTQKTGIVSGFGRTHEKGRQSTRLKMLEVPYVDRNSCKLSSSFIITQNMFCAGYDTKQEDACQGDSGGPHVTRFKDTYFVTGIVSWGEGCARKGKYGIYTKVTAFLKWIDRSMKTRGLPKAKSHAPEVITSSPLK
T1 sequence (P00742 41-179 partner limits assumed): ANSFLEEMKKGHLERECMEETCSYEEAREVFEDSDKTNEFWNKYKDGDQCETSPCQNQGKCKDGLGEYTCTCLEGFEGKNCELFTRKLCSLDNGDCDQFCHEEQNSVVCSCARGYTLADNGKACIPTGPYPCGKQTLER

Row | Compound | IC50(Compound)/IC50(apixaban) (Factor Xa) | The Prolongation of bleeding time (compound)/The Prolongation of bleeding time(apixaban) (Male SD rats [1]) | Inhibition of thrombus formation (%) (Male SD rats [2])
1 | CCOc1ccc(-n2nc(C(N)=O)c3c2C(=O)N(c2ccc(-n4ccccc4=O)c(C)c2)CC3)cc1F [A 38, 1-(3-fluoro-4-ethoxyphenyl)-6-(3-methyl-4-(2-oxopyridin-1(2H)-yl)phenyl)-7-oxo-4,5,6,7-tetrahydro-1H-pyrazolo[3,4-c]pyridine-3-carboxamide] | <1 | <1 | 70.5
2 | CCOc1ccc(-n2nc(C(N)=O)c3c2C(=O)N(c2ccc(-n4cccc(C)c4=O)c(C)c2)CC3)cc1F [A 40, 1-(3-fluoro-4-ethoxyphenyl)-6-(3-methyl-4-(3-methyl-2-oxopyridin-1(2H)-yl)phenyl)-7-oxo-4,5,6,7-tetrahydro-1H-pyrazolo[3,4-c]pyridine-3-carboxamide] | <1 | <1 | 63.4
3 | CCOc1ccc(-n2nc(C(N)=O)c3c2C(=O)N(c2ccc(N4CCCC4=O)c(C)c2)CC3)cc1 [A 35, 1-(4-ethoxyphenyl)-6-(3-methyl-4-(2-oxopyrrolidin-1-yl)phenyl)-7-oxo-4,5,6,7-tetrahydro-1H-pyrazolo[3,4-c]pyridine-3-carboxamide] | <2 | <1 | 
4 | COc1ccc(-n2nc(C(N)=O)c3c2C(=O)N(c2ccc(N4CCSCC4=O)cc2)CC3)cc1 [A 3, 1-(4-methoxyphenyl)-6-(4-(3-oxothiomorpholino)phenyl)-7-oxo-4,5,6,7-tetrahydro-1H-pyrazolo[3,4-c]pyridine-3-carboxamide] | <1 |  | 
5 | CCOc1ccc(-n2nc(C(N)=O)c3c2C(=O)N(c2ccc(N4CCOCC4=O)c(C)c2)CC3)cc1F [A 34, 1-(3-fluoro-4-ethoxyphenyl)-6-(3-methyl-4-(3-oxomorpholino)phenyl)-7-oxo-4,5,6,7-tetrahydro-1H-pyrazolo[3,4-c]pyridine-3-carboxamide] | <1 | <1 | 62.5
6 | CCOc1ccc(-n2nc(C(N)=O)c3c2C(=O)N(c2ccc(-n4cccc(C)c4=O)cc2)CC3)cc1F [A 27, 1-(3-fluoro-4-ethoxyphenyl)-6-(4-(3-methyl-2-oxopyridin-1(2H)-yl)phenyl)-7-oxo-4,5,6,7-tetrahydro-1H-pyrazolo[3,4-c]pyridine-3-carboxamide] | <2 | <1 | 68.7
7 | COc1ccc(-n2nc(C(N)=O)c3c2C(=O)N(c2ccc(N4CCOCC4=O)c(C)c2)CC3)cc1 [A 17, 1-(4-methoxyphenyl)-6-(3-methyl-4-(3-oxomorpholino)phenyl)-7-oxo-4,5,6,7-tetrahydro-1H-pyrazolo[3,4-c]pyridine-3-carboxamide] | <1 |  | 
8 | CCOc1ccc(-n2nc(C(N)=O)c3c2C(=O)N(c2ccc(N4CCCC4=O)c(C)c2)CC3)cc1F [A 36, 1-(3-fluoro-4-ethoxyphenyl)-6-(3-methyl-4-(2-oxopyrrolidin-1-yl)phenyl)-7-oxo-4,5,6,7-tetrahydro-1H-pyrazolo[3,4-c]pyridine-3-carboxamide] | <1 | <1 | 71.6
9 | COc1ccc(-n2nc(C(N)=O)c3c2C(=O)N(c2ccc(N4CCCCC4=O)c(C)c2)CC3)cc1F [A 47, 1-(3-fluoro-4-methoxyphenyl)-6-(3-methyl-4-(2-oxopiperidin-1-yl)phenyl)-7-oxo-4,5,6,7-tetrahydro-1H-pyrazolo[3,4-c]pyridine-3-carboxamide] | <1 |  | 
10 | CCOc1ccc(-n2nc(C(N)=O)c3c2C(=O)N(c2ccc(N4CCOCC4=O)c(C)c2)CC3)cc1 [A 33, 1-(4-ethoxyphenyl)-6-(3-methyl-4-(3-oxomorpholino)phenyl)-7-oxo-4,5,6,7-tetrahydro-1H-pyrazolo[3,4-c]pyridine-3-carboxamide] | <1 | <1 | 60.8
11 | CCOc1ccc(-n2nc(C(N)=O)c3c2C(=O)N(c2ccc(-n4ccccc4=O)c(C)c2)CC3)cc1 [A 37, 1-(4-ethoxyphenyl)-6-(3-methyl-4-(2-oxopyridin-1(2H)-yl)phenyl)-7-oxo-4,5,6,7-tetrahydro-1H-pyrazolo[3,4-c]pyridine-3-carboxamide] | <1 | <1 | 63.7
12 | COc1ccc(-n2nc(C(N)=O)c3c2C(=O)N(c2ccc(-n4ccccc4=O)c(C)c2)CC3)cc1F [A 50, 1-(3-fluoro-4-methoxyphenyl)-6-(3-methyl-4-(2-oxopyridin-1(2H)-yl)phenyl)-7-oxo-4,5,6,7-tetrahydro-1H-pyrazolo[3,4-c]pyridine-3-carboxamide] | <1 |  | 
13 | COc1ccc(-n2nc(C(N)=O)c3c2C(=O)N(c2ccc(-n4ccccc4=O)c(C)c2)CC3)cc1 [A 19, 1-(4-methoxyphenyl)-6-(3-methyl-4-(2-oxopyridin-1(2H)-yl)phenyl)-7-oxo-4,5,6,7-tetrahydro-1H-pyrazolo[3,4-c]pyridine-3-carboxamide] | <1 |  | 
14 | CCOc1ccc(-n2nc(C(N)=O)c3c2C(=O)N(c2ccc(-n4cccc(C)c4=O)cc2)CC3)cc1 [A 28, 1-(4-ethoxyphenyl)-6-(4-(3-methyl-2-oxopyridin-1(2H)-yl)phenyl)-7-oxo-4,5,6,7-tetrahydro-1H-pyrazolo[3,4-c]pyridine-3-carboxamide] | <1 | <1 | 73.1
15 | CCOc1ccc(-n2nc(C(N)=O)c3c2C(=O)N(c2ccc(N4CCCCC4=O)cc2)CC3)cc1Cl [A 29, 1-(3-chloro-4-ethoxyphenyl)-6-(4-(2-oxopiperidin-1-yl)phenyl)-7-oxo-4,5,6,7-tetrahydro-1H-pyrazolo[3,4-c]pyridine-3-carboxamide] | <2 | <1 | 67.4
16 | COc1ccc(-n2nc(C(N)=O)c3c2C(=O)N(c2ccc(-n4cccc(C)c4=O)c(C)c2)CC3)cc1F [A 51, 1-(3-fluoro-4-methoxyphenyl)-6-(3-methyl-4-(3-methyl-2-oxopyridin-1(2H)-yl)phenyl)-7-oxo-4,5,6,7-tetrahydro-1H-pyrazolo[3,4-c]pyridine-3-carboxamide] | <1 |  | 
17 | CCOc1ccc(-n2nc(C(N)=O)c3c2C(=O)N(c2ccc(-n4cccc(C)c4=O)cc2)CC3)cc1Cl [A 30, 1-(3-chloro-4-ethoxyphenyl)-6-(4-(3-methyl-2-oxopyridin-1(2H)-yl)phenyl)-7-oxo-4,5,6,7-tetrahydro-1H-pyrazolo[3,4-c]pyridine-3-carboxamide] | <2 | <1 | 
18 | COc1ccc(-n2nc(C(N)=O)c3c2C(=O)N(c2ccc(N4CCOCC4=O)c(C)c2)CC3)cc1F [A 48, 1-(3-fluoro-4-methoxyphenyl)-6-(3-methyl-4-(3-oxomorpholino)phenyl)-7-oxo-4,5,6,7-tetrahydro-1H-pyrazolo[3,4-c]pyridine-3-carboxamide] | <1 |  | 
19 | CCOc1ccc(-n2nc(C(N)=O)c3c2C(=O)N(c2ccc(N4CCCCC4=O)c(C)c2)CC3)cc1F [A 32, 1-(3-fluoro-4-ethoxyphenyl)-6-(3-methyl-4-(2-oxopiperidin-1-yl)phenyl)-7-oxo-4,5,6,7-tetrahydro-1H-pyrazolo[3,4-c]pyridine-3-carboxamide] | <1 | <1 | 61.4
20 | COc1ccc(-n2nc(C(N)=O)c3c2C(=O)N(c2ccc(N4CCCCC4=O)c(C)c2)CC3)cc1 [A 16, 1-(4-methoxyphenyl)-6-(3-methyl-4-(2-oxopiperidin-1-yl)phenyl)-7-oxo-4,5,6,7-tetrahydro-1H-pyrazolo[3,4-c]pyridine-3-carboxamide] | <1 |  | 
